Results as given in patent US20090275656A1, “Medicinal Compositions of Salts, Chelates and/or Free Acids of Alpha Hydroxyl Organic Acids and Related Processes and Methods” (priority 2005, published 2009).
“Also recorded” adds a separate entry of the source. Read-outs that look alike come from different tables or passages of the source.

Assays:
[1] = test system: C57BL/6 mouse spleen cells; experiment: Growth arrest of spleen cells cultured with mitogen Con A (thymidine incorporation); assay type: cell-based; conditions: 48 hours
Procedure: Growth of spleen cells was evaluated in response to the mitogen Con A (2.5 μg/ml) after 48 hours by radioactive thymidine incorporation. Comparison is made at doses in mg/ml for inhibiting 25%, 50% and 90% of the growth of spleen cells; i.e. IC dose values.
Growth of spleen cells was evaluated in response to the mitogen Con A (2.5 μg/ml) after 48 hours by radioactive thymidine incorporation. Comparison is made at concentrations in mg/ml for inhibiting 25%, 50% and 90% of the growth of spleen cells; IC values.
Comparison is made at doses in mg/ml for inhibiting 25%, 50% and 90% of the growth of spleen cells; IC values.
For the study of Citrimix as the calcium/potassium alpha hydroxy citric acid chelate compared to the ammonia chelate of hydroxy citric acid (Nu-Citrimix), inhibition growth of primary spleen cells after in vitro exposure in microtiter cell culture for 48 hours in the presence of mitogen (Con A, 2 ug/ml), was the bioassay procedure used (Akesson C., Lindgren H., Pero R. W., Leanderson T., Ivars F., “An extract of Uncaria Tomentosa inhibiting cell division and NF-kB activity without inducing cell death,” International Immunopharm 3:1889-1900, 2003).

NF-kB = NF-kB inhibition in Jurkat T cells; assay type: cell-based, human; conditions: FIG. 4
Procedure: FIG. 4 illustrates the evaluation of NF-kB in Jurkat T cells as previously described in detail after treatment with quinic acid (H+), quinic aid ammonium chelate neutralized to pH=7.5 or the equivalent amount of […] (NH4Cl).
Independent inhibition of NF-kB by either QA or NH4+ ions. Human Jurkat T cells were incubated together with either QA, QA-NH4+ or NH4Cl, and the degree of inhibition of NF-kB evaluated as described elsewhere. See, FIG. 4. Parra E, et al., 1997. Mol Cell Biol 17:1324-23; Akesson, C., et al., Int. Immunopharmacol., 5(1):219 (2005).

[2] = test system: human HL-60 leukemic cells; experiment: In vitro growth inhibition of cultured HL-60 cells by quinic acid salts/chelates (MTT); assay type: cell-based; conditions: 72 hr, concentrations up to 3000 μg/ml
Text: FIG. 1 illustrates in vitro growth inhibition expressed as IC50 values (i.e. the dose that inhibits 50% of growth) induced by various quinic acid salts, chelates or salts/chelates (molecular structure at saturation undetermined) in cultured HL-60 cells. QA-H+=free quinic acid (H+), QA-NH4.+=quinic acid ammonium chelate, QA-Na+=quinic acid sodium salt, QA-K+=quinic acid potaasium chelate, QA-Zn++=quinic acid zinc salt/chelate, QA-Li+=quinic acid lithium salt/chelate, Ca++=quinic acid calcium chelate, quinic acid histidine salt/chaelate=QA-histidine, quinic acid lysine salt/chelate=QA-lysine, and C-Med-100=non pH adjusted water extract.
For the study involving quinic acid salts and chelates (FIG. 1) quinic acid was purchased from Sigma (>99%). QA salts/chelates were synthesized by neutralization to pH=7.5 with the appropriate base, i.e., NH4OH, NaOH, Ca(OH)2, Zn(OH)2, LiOH, KOH, lysine or histidine. Serial dilutions of test compounds were added to human HL-60 leukemic cells (0.05×10^6 cells/ml) in 96-well, flat bottomed microtiter plates to give final concentrations in the cultures up to 3000 μg/ml. The plates were incubated for 72 hr at 37 C, pulsed with 20 μl MTT (5 mg/ml) for 3 hr, and the color estimated spectrophotometrically at 540 nm as described previously. (Schweitzer, C M et al. Spectrophotometric determination of clonogenic capacity of leukemic cells in semisolid microtiter culture systems. Experimental Hematology 21: 573-578, 1993). IC50 values were calculated and compared based on the live/dead ratio of cells.

[3] = test system: Rat white blood cells (WBC); experiment: DNA damage recovery in the rat after DXR treatment, white blood cell count; assay type: in vivo; conditions: for Prevention of cell death after exposure to DNA damaging agent DXR: DXR treatment, WBC after 15 days
Text: White blood cell (WBC) growth after 15 days estimated as 10^12WBC/liter blood. DXR=doxorubicin DNA damaging agent.
(§1) Rat white blood cells (WBC) or mouse spleen WBC were increased in vivo after quinic acid oral administration either by gavage or in drinking water from 7.2 to >8.2×10^6 cells/ml or 6.2 to 8.3×10^9 cells/ml, respectively. […] If extrapolated into a lifespan which is logically reasonable, then living to an average age of 90 years would be increased to 112 years by ingesting optimal amounts of quinic acid during one's lifetime.

mouse spleen WBC = experiment: Mouse spleen WBC after quinic acid oral administration; assay type: in vivo; conditions: oral (gavage or drinking water), increased from 6.2
Text: as §1

DNA repair = DNA repair enhancement in vivo
Text: The discovery began in trying to explain the biological activity of a hot water extract of Cat's Claw bark, Uncaria tomentosa, called C-Med-100. […] After this initial biological characterization, the applicant has set forth to identify the natural product behind DNA repair enhancement as a potential anti-aging therapy. A series of chemical studies have led scientists to first identify carboxy alkyl esters (CAEs) as the bioactives and then it was followed by quinic acid esters (QAEs) being identified as the only bioactive CAEs in cat's claw water extracts. […] bioactive both in vitro and in vivo. […] However, quinic acid is present in water extracts of Cat's Claw as […] in effect in a pro-metabolite form since the QAEs would be hydrolyzed to quinic acid in the gastrointestinal tract.

[4] = 2700 μg/ml; Jacobsen et al 1978; cited from earlier work
[5] = lower animals, oral, highest dose tested 300-600 mg/kg; Adamson et al 1970; cited from earlier work
[6] = human, oral, highest dose tested 90 mg/kg; Beer et al 1951, Adamson et al 1970; cited from earlier work
[7] = mouse, drink water; Akesson et al 2005; cited from earlier work
[8] = rat, oral; Sheng et al 2005; cited from earlier work
[9] = Safety, toxicity and efficacy (Table 2), human; assay type: in vivo; conditions: oral, highest dose tested 70 mg/kg, University of Lund human volunteer n = 2
Text: Quinmax™ is substantially pure quinic acid neutralized with aqueous ammonia to pH=7.5. As a result, in water ammonium ions are also generated which in themselves have potent biological functions. Ammonium ions, for example, stimulate protein synthesis in the GI tract, neutralize lysosomal vesicles thus preventing oxidative stress DNA damage, and inhibit NF-kB mediated inflammatory responses. These are examples of additional biological properties of Quinmax™, which is devoid of any added-on toxicity. […] Jacobsen, L B, Richardson, C L, Floss, H G. 1978. Shikimic acid and quinic acid are not mutagenic in the Ames assay. Lloydia 41(5): 450-452. Here the most important consideration is to compare the highest doses of quinic acid exposure to those shown to have efficacy in various animal models. It is quite apparent that quinic acid doses that far exceed the known efficacious doses of quinic acid have been used in the various animal model systems.
Here the most important consideration is to compare the highest doses of quinic acid exposure to those shown to have efficacy in various animal models. It is quite apparent that quinic acid doses that far exceed the known efficacious doses of quinic acid have been used in the various animal model systems. […] Moreover, Quinmax™ is quinic acid neutralized with aqueous ammonia to pH=7.5. […]

[10] = human, in vivo, po
Procedure: Additional oral administration of high dose QA was carried out after ingestion of 6 gm Quinmax™ in human volunteers at the University of Lund. The purpose of this study was to determine if significant metabolism of QA to hippuric acid occurred when QA was administered in the ammonia chelated form as Quinmax™, a 1:1.6 molar ratio of QA to ammonia ions.
A apparently healthy volunteer drank 6 gm Quinmax™ dissolved in 300 ml water over a 15 min period, and then about 40 ml of peripheral blood (4-red topped vacutainers) were allowed to clot at room temperature to prepare serum samples by centrifugation. The serum sampling points were 0.7 hr, 1.7 hr, 2.7 hr, 3.7 hr, 10.5 hr 12.5 hr, 22 hr, 28 hr and 44 hr. 30 ml serum samples were precipitated with 50% ethanol, taken to dryness under a stream of air, and redissolved in 1 ml of methanol for simultaneous HPLC analysis of quinic acid and hippuric acid.
First to determine when peak serum concentrations of QA occurred and how long they would remain detectable.

Compound	IC25 growth of spleen cells (comparison in words) [1]	IC50 growth of spleen cells (comparison in words) [1]	IC90 growth of spleen cells (comparison in words) [1]	NF-kB inhibition (comparison in words) (NF-kB)	Prevention of cell death after exposure to DNA damaging agent DXR ([3]; rat)	DNA repair enhancing activity (comparison in words) (DNA repair)	Efficacy (efficacious dose) [8]	other results
Cl.N [NH4Cl, reference compound]	comparable to the quinic acid ammonium chelate	comparable to the quinic acid ammonium chelate	comparable to the quinic acid ammonium chelate	as effective as the quinic acid NH4+ chelate	–	–	–	–
O=C([O-])C1(O)CC(O)C(O)C(O)C1.O=C([O-])C1(O)CC(O)C(O)C(O)C1.[Ca+2] (stereo not drawn) [QA-Ca++, quinic acid calcium chelate]	–	–	–	–	–	–	–	IC50 growth inhibition of HL-60 cells (comparison in words) ([2]; FIG. 1): more effective than known salts such as QA-Na+
O=C(O)[C@]1(O)C[C@@H](O)[C@@H](O)[C@H](O)C1 [Quinic acid]	–	–	–	–	prevent cell death	as much DNA repair enhancing activity in vivo as did the QAEs	≦200 mg/kg	Increase in the protection of the DNA from becoming damaged and killing the cells ([3]; calculated from rat WBC and mouse spleen WBC increases): 13-25%; Rat white blood cells (WBC) after oral administration ([3]; rat, oral (gavage or drinking water), increased from 7.2): > 8.2 ×10^6 cells/ml; Mouse spleen WBC after oral administration (mouse spleen WBC): 8.3 ×10^9 cells/ml; Toxicity evaluated by mutagenicity in the Ames Assay [4]: did not demonstrate any toxicity; Toxicity [5]: None; Toxicity [6]: None; Efficacy (efficacious dose) [7]: 250 mg/kg
N.O=C(O)[C@]1(O)C[C@@H](O)[C@@H](O)[C@H](O)C1 [Quinmax™, quinic acid ammonium chelate]	dramatically lowering the IC25, IC50 and IC90 values compared to quinic acid (H+)	dramatically lowering the IC25, IC50 and IC90 values compared to quinic acid (H+)	dramatically lowering the IC25, IC50 and IC90 values compared to quinic acid (H+)	enhanced NF-kB inhibition over quinic acid (H+)	prevent cell death	as efficacious as Cat's Claw water extracts such as C-Med-100	≦200 mg/kg	IC50 growth inhibition of HL-60 cells (comparison in words) ([2]; FIG. 1, listed as QA-NH4+): more effective than known salts such as QA-Na+; IC50 growth inhibition of HL-60 cells (comparison in words) ([2]; FIG. 1, listed as QA-NH4+ chelate): much more biologically effective than any other salt or chelate; also recorded: as efficacious as the cat's claw water extract (C-Med-100); Toxicity [9]: None; Time during which hippuric acid could be measured in serum [10]: 3.7 to 12.5 h; Time of peak serum concentrations of QA [10]: around 10.5 hr
